{"source": "ChEMBL document CHEMBL4033741", "about": "“Dioscin suppresses TGF-β1-induced epithelial-mesenchymal transition and suppresses A549 lung cancer migration and invasion” (2017)", "key": {"A549 [1]": {"tested_on": "A549", "assay": "Antiproliferative activity against human A549 cells assessed as cell survival rate at 3 uM incubated for 24 hrs by CCK8 assay", "type": "functional", "settings": "A549, 24 h, read-out: Survival"}, "A549 [2]": {"tested_on": "A549", "assay": "Antiproliferative activity against human A549 cells assessed as inhibition of cell growth at 4 uM incubated for 24 to 48 hrs by CCK8 assay", "type": "functional, cell-based"}, "[3]": {"target": "72 kDa type IV collagenase (Homo sapiens) (UniProt P08253)", "sequence (P08253 110-660 limits assumed)": "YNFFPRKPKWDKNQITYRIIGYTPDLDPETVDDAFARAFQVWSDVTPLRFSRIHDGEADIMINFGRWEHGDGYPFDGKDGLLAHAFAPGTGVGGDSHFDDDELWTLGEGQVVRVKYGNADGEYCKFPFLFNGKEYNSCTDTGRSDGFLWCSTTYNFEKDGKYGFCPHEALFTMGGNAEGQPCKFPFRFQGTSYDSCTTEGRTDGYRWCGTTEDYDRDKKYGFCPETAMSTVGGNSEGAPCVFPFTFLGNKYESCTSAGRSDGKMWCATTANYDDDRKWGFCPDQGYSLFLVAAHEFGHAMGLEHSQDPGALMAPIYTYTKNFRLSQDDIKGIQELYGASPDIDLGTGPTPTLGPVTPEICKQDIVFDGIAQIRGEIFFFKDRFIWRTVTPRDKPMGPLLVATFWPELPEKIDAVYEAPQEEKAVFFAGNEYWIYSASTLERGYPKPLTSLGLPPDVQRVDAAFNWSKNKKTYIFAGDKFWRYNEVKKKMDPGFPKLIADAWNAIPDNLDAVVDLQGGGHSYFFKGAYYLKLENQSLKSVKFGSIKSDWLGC", "assay": "Inhibition of TGF-beta1-induced MMP2 activity in human A549 cells at 2.5 to 3 uM for 2 hrs followed by TGF-beta1 stimulation for 24 hrs by gelatin zymography", "type": "cell-based"}, "[4]": {"target": "Mothers against decapentaplegic homolog 2 (Homo sapiens) (UniProt Q15796)", "sequence (Q15796 whole entry)": "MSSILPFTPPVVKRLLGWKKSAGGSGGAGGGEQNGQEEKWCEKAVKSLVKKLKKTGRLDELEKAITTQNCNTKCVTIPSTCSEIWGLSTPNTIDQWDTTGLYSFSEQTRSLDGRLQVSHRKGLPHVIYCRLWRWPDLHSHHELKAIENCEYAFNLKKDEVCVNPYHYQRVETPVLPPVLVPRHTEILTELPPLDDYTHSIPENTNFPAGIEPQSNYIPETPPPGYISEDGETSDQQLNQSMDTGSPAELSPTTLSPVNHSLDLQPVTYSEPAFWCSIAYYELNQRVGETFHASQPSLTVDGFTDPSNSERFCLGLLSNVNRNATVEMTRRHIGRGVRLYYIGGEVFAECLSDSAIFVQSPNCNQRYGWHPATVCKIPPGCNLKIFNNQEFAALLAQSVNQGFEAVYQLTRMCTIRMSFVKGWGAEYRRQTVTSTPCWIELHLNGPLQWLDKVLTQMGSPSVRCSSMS", "assay": "Inhibition of TGF-beta1-induced Smad2 phosphorylation in human A549 cells at 2.5 to 3 uM for 2 hrs followed by TGF-beta1 stimulation for 24 hrs by Western blot method", "type": "cell-based"}, "A549 [5]": {"tested_on": "A549", "assay": "Inhibition of TGF-beta1-induced epithelial-mesenchymal transition in human A549 cells assessed as reduction in TGFbeta gene expression at 2.5 to 3 uM for 2 hrs followed by TGF-beta1 stimulation for 24 hrs by qRT-PCR method", "type": "functional, cell-based"}, "A549 [6]": {"tested_on": "A549", "assay": "Inhibition of TGF-beta1-induced epithelial-mesenchymal transition in human A549 cells assessed as reduction in SNAI2 gene expression at 2.5 to 3 uM for 2 hrs followed by TGF-beta1 stimulation for 24 hrs by qRT-PCR method", "type": "functional, cell-based"}, "A549 [7]": {"tested_on": "A549", "assay": "Inhibition of TGF-beta1-induced epithelial-mesenchymal transition in human A549 cells assessed as reduction in Snail protein expression at 2.5 to 3 uM for 2 hrs followed by TGF-beta1 stimulation for 24 hrs by Western blot method", "type": "functional, cell-based"}, "A549 [8]": {"tested_on": "A549", "assay": "Antiproliferative activity against human A549 cells assessed as cell survival rate at 0.5 uM incubated for 24 hrs by CCK8 assay", "type": "functional", "settings": "A549, 24 h, read-out: Survival"}, "A549 [9]": {"tested_on": "A549", "assay": "Inhibition of TGF-beta1-induced epithelial-mesenchymal transition in human A549 cells assessed as increase in E-cadherin gene expression at 2.5 to 3 uM for 2 hrs followed by TGF-beta1 stimulation for 24 hrs by qRT-PCR method", "type": "functional, cell-based"}, "A549 [10]": {"tested_on": "A549", "assay": "Inhibition of TGF-beta1-induced epithelial-mesenchymal transition in human A549 cells assessed as reduction in N-cadherin gene expression at 2.5 to 3 uM for 2 hrs followed by TGF-beta1 stimulation for 24 hrs by qRT-PCR method", "type": "functional, cell-based"}, "A549 [11]": {"tested_on": "A549", "assay": "Antiproliferative activity against human A549 cells assessed as cell survival rate at 1 uM incubated for 24 hrs by CCK8 assay", "type": "functional", "settings": "A549, 24 h, read-out: Survival"}, "A549 [12]": {"tested_on": "A549", "assay": "Inhibition of TGF-beta1-induced epithelial-mesenchymal transition in human A549 cells assessed as increase in E-cadherin expression pre-incubated for 2 hrs at 2.5 to 3 uM for 2 hrs followed by TGF-beta1 stimulation for 24 hrs by Western blot method", "type": "functional, cell-based"}, "A549 [13]": {"tested_on": "A549", "assay": "Inhibition of TGF-beta1-induced epithelial-mesenchymal transition in human A549 cells assessed as decrease in N-cadherin expression pre-incubated for 2 hrs at 2.5 to 3 uM for 2 hrs followed by TGF-beta1 stimulation for 24 hrs by Western blot method", "type": "functional, cell-based"}, "A549 [14]": {"tested_on": "A549", "assay": "Inhibition of TGF-beta1-induced cell migration in human A549 cells at 2.5 to 3 uM treated along with TGF-beta1 stimulation following cell layer cell layer scratching measured after 24 hrs", "type": "functional, cell-based"}, "A549 [15]": {"tested_on": "A549", "assay": "Antiproliferative activity against human A549 cells assessed as cell survival rate at 2 uM incubated for 24 hrs by CCK8 assay", "type": "functional", "settings": "A549, 24 h, read-out: Survival"}, "[16]": {"target": "Matrix metalloproteinase-9 (Homo sapiens) (UniProt P14780)", "sequence (P14780 whole entry)": "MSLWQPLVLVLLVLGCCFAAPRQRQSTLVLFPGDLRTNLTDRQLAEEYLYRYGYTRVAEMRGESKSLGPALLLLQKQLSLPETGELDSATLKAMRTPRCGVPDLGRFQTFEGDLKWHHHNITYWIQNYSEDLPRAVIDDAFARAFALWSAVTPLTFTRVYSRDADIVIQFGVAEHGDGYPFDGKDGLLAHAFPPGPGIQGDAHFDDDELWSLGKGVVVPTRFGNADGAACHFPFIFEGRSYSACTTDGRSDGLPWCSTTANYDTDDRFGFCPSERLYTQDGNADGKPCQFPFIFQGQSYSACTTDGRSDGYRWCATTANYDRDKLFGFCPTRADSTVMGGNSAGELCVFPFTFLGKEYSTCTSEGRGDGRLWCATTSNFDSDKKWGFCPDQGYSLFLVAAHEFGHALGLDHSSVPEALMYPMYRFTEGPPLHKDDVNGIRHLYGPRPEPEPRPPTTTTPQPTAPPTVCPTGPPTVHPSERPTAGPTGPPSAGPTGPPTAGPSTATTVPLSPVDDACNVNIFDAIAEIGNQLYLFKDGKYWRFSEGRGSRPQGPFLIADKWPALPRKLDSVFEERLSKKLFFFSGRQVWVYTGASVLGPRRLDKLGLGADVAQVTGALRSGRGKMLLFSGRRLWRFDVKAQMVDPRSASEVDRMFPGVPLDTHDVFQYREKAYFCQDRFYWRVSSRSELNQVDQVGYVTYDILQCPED", "assay": "Inhibition of TGF-beta1-induced MMP9 activity in human A549 cells at 2.5 to 3 uM for 2 hrs followed by TGF-beta1 stimulation for 24 hrs by gelatin zymography", "type": "cell-based"}, "A549 [17]": {"tested_on": "A549", "assay": "Antiproliferative activity against human A549 cells assessed as cell survival rate at 2.5 uM incubated for 24 hrs by CCK8 assay", "type": "functional", "settings": "A549, 24 h, read-out: Survival"}, "A549 [18]": {"tested_on": "A549", "assay": "Inhibition of TGF-beta1-induced cell invasion in human A549 cells at 2.5 to 3 uM measured after 48 hrs by Matrigel invasion assay", "type": "functional, cell-based"}, "A549 [19]": {"tested_on": "A549", "assay": "Inhibition of TGF-beta1-induced MMP2 gene expression in human A549 cells at 2.5 to 3 uM for 2 hrs followed by TGF-beta1 stimulation for 24 hrs by qRT-PCR method", "type": "functional, cell-based"}, "[20]": {"target": "MAP kinase p38 (Homo sapiens) (UniProt O15264+Q15759+Q16539+P53778)", "assay": "Inhibition of TGF-beta1-induced p38 phosphorylation in human A549 cells at 2.5 to 3 uM for 2 hrs followed by TGF-beta1 stimulation for 24 hrs by Western blot method", "type": "cell-based"}, "A549 [21]": {"tested_on": "A549", "assay": "Inhibition of TGF-beta1-induced epithelial-mesenchymal transition in human A549 cells assessed as suppression of cell elongation and spindle like shapes pre-incubated for 2 hrs at 2.5 to 3 uM for 2 hrs followed by TGF-beta1 stimulation for 24 hrs", "type": "functional, cell-based"}, "A549 [22]": {"tested_on": "A549", "assay": "Inhibition of TGF-beta1-induced MMP9 gene expression in human A549 cells at 2.5 to 3 uM for 2 hrs followed by TGF-beta1 stimulation for 24 hrs by qRT-PCR method", "type": "functional, cell-based"}, "A549 [23]": {"tested_on": "A549", "assay": "Inhibition of TGF-beta1-induced epithelial-mesenchymal transition in human A549 cells assessed as reduction in vimentin gene expression at 2.5 to 3 uM for 2 hrs followed by TGF-beta1 stimulation for 24 hrs by qRT-PCR method", "type": "functional, cell-based"}, "A549 [24]": {"tested_on": "A549", "assay": "Inhibition of TGF-beta1-induced epithelial-mesenchymal transition in human A549 cells assessed as reduction in Smad2 gene expression at 2.5 to 3 uM for 2 hrs followed by TGF-beta1 stimulation for 24 hrs by qRT-PCR method", "type": "functional, cell-based"}, "A549 [25]": {"tested_on": "A549", "assay": "Inhibition of TGF-beta1-induced epithelial-mesenchymal transition in human A549 cells assessed as reduction in TGFbetaR1 gene expression at 2.5 to 3 uM for 2 hrs followed by TGF-beta1 stimulation for 24 hrs by qRT-PCR method", "type": "functional, cell-based"}, "A549 [26]": {"tested_on": "A549", "assay": "Inhibition of TGF-beta1-induced epithelial-mesenchymal transition in human A549 cells assessed as reduction in Snail gene expression at 2.5 to 3 uM for 2 hrs followed by TGF-beta1 stimulation for 24 hrs by qRT-PCR method", "type": "functional, cell-based"}}, "note": "Calls of active or inactive are those of the source. The calls are words filed in the database; no cut-off is given here."}
{"smiles": "C[C@@H]1CC[C@@]2(OC1)O[C@H]1C[C@H]3[C@@H]4CC=C5C[C@@H](O[C@@H]6O[C@H](CO)[C@@H](O[C@@H]7O[C@@H](C)[C@H](O)[C@@H](O)[C@H]7O)[C@H](O)[C@H]6O[C@@H]6O[C@@H](C)[C@H](O)[C@@H](O)[C@H]6O)CC[C@]5(C)[C@H]4CC[C@]3(C)[C@H]1[C@@H]2C", "note": "[DIOSCIN]", "values": [{"measurement": "viability at 3 µM", "setting": "A549 [1]", "value": "> 80", "unit": "%"}, {"measurement": "growth inhibition (GI)", "setting": "A549 [2]", "value": "Active"}, {"measurement": "inhibition", "setting": "[3]", "value": "Active"}, {"measurement": "inhibition", "setting": "[4]", "value": "Dose-dependent effect"}, {"measurement": "inhibition", "setting": "A549 [5]", "value": "Dose-dependent effect"}, {"measurement": "inhibition", "setting": "A549 [6]", "value": "Dose-dependent effect"}, {"measurement": "inhibition", "setting": "A549 [7]", "value": "Dose-dependent effect"}, {"measurement": "viability at 0.5 µM", "setting": "A549 [8]", "value": "> 80", "unit": "%"}, {"measurement": "inhibition", "setting": "A549 [9]", "value": "Dose-dependent effect"}, {"measurement": "inhibition", "setting": "A549 [10]", "value": "Dose-dependent effect"}, {"measurement": "viability at 1 µM", "setting": "A549 [11]", "value": "> 80", "unit": "%"}, {"measurement": "inhibition", "setting": "A549 [12]", "value": "Active"}, {"measurement": "inhibition", "setting": "A549 [13]", "value": "Active"}, {"measurement": "inhibition", "setting": "A549 [14]", "value": "Dose-dependent effect"}, {"measurement": "viability at 2 µM", "setting": "A549 [15]", "value": "> 80", "unit": "%"}, {"measurement": "inhibition", "setting": "[16]", "value": "Active"}, {"measurement": "viability at 2.5 µM", "setting": "A549 [17]", "value": "> 80", "unit": "%"}, {"measurement": "inhibition", "setting": "A549 [18]", "value": "Active"}, {"measurement": "inhibition", "setting": "A549 [19]", "value": "Dose-dependent effect"}, {"measurement": "inhibition", "setting": "[20]", "value": "Active"}, {"measurement": "inhibition", "setting": "A549 [21]", "value": "Active"}, {"measurement": "inhibition", "setting": "A549 [22]", "value": "Dose-dependent effect"}, {"measurement": "inhibition", "setting": "A549 [23]", "value": "Dose-dependent effect"}, {"measurement": "inhibition", "setting": "A549 [24]", "value": "Dose-dependent effect"}, {"measurement": "inhibition", "setting": "A549 [25]", "value": "Dose-dependent effect"}, {"measurement": "inhibition", "setting": "A549 [26]", "value": "Dose-dependent effect"}]}
